Laboratory results as given in the OligoGym collection.
“And” between values parts separate entries of the source, which are not always exact repeats. Equal values may be shown once. After the bases stand the sugars from the 5' end (letter, count) and the backbone: PS all phosphorothioate, else s phosphorothioate and o phosphodiester by linkage. Methylation of C is not given here. e = 2'-O-(2-methoxyethyl) (MOE); l = locked nucleic acid (LNA); k = constrained ethyl (cEt); d = 2'-deoxy (DNA)

Experiments:
SNHG14 = details: ASO, Human Neuronal Cell
APOL1 = details: ASO

Row | Sequence | target mRNA inhibition (APOL1; A431, 0.0625 µM) | target mRNA inhibition (APOL1; A431, 1 µM) | target mRNA inhibition (APOL1; A431, 2 µM) [%] | further results
1 | TTGATTCAATTCCCTTA (sugars lddllddddddllddll, PS) | – | – | – | target mRNA inhibition (SNHG14; 7.5 µM): 55%
2 | TTTATGTTTACTTCAT (sugars l3 d10 l3, PS) | – | – | – | target mRNA inhibition (SNHG14; 0.2 µM): 33%; target mRNA inhibition (SNHG14; 1 µM): 47%
3 | GCTTTAAACTCAGGTG (sugars kkkddddkdkdkdddd, PS) | 54% | 93% | 93 | target mRNA inhibition (APOL1; A431, 0.0156 µM): 18%; target mRNA inhibition (APOL1; A431, 0.25 µM): 81%
4 | ACACATCATTGGGTTA (sugars kkkddddkekekdddd, PS) | – | – | 32 | –
5 | CCACTTGAGTCATTTG (sugars k4 d9 k3, PS) | 40% | 90% | – | target mRNA inhibition (APOL1; A431, 0.25 µM): 72%
6 | TCTATTAGAGGGCTAG (sugars k2 d4 e4 k2 d4, PS) | – | – | 44 | –
7 | GTGAGTATTGTTTTTG (sugars k2 d4 e3 k2 d5, PS) | – | – | 92 | –
8 | GTTTTTACAATAGTGC (sugars k4 d9 k3, PS) | 74% | 96% | – | target mRNA inhibition (APOL1; A431, 0.25 µM): 91%
9 | CGTCAATATATTCTTT (sugars kkdddddkekeddddd, PS) | – | – | 87 | –
10 | TGTAAGTGCAACCAAT (sugars k4 d9 k3, PS) | 19% | 78% | – | target mRNA inhibition (APOL1; A431, 0.25 µM): 46%
11 | TATCAGATGGGTACTT (sugars k2 d4 e3 k2 d5, PS) | – | – | 70 | –
12 | GAATGAGCAGGTCAGA (sugars k4 d9 k3, PS) | 41% | 91% | – | target mRNA inhibition (APOL1; A431, 0.25 µM): 75%
13 | GGCATTCAGAATTTCC (sugars kkkddddkekekdddd, PS) | – | – | 20 | –
14 | GTGTATTTCTTGATGT (sugars kkkddddkekekdddd, PS) | – | – | 84 | –
15 | GAAGCTTTAAACTCAG (sugars k2 d4 e3 k2 d5, PS) | – | – | 72 | –
16 | TTCTATTAGAGGGCTA (sugars k3 d4 k3 e1 d5, PS) | – | – | 85 | –
17 | CAGATGGGTACTTCTG (sugars kkddddkekekkdddd, PS) | – | – | 10 | –
18 | ATTCTATTAGAGGGCT (sugars kekddddeekkddddd, PS) | – | – | 77 | –
19 | GTAAGTGCAACCAATC (sugars k4 d9 k3, PS) | 75% | 99% | – | target mRNA inhibition (APOL1; A431, 0.25 µM): 93%
20 | CACATCATTGGGTTAT (sugars k4 d9 k3, PS) | 65% | 90% | – | target mRNA inhibition (APOL1; A431, 0.25 µM): 84%
21 | ACGCAATGCTGACTTG (sugars k3 d4 k3 e1 d5, PS) | – | – | 88 | –

Row | Sequence | target mRNA inhibition (APOL1; A431, 0.0625 µM) | target mRNA inhibition (APOL1; A431, 1 µM) | target mRNA inhibition (APOL1; A431, 2 µM) [%] | further results
22 | ATTCTATTAGAGGGCT (sugars kkkddddkdkdkdddd, PS) | – | – | 78 | –
23 | CGTCAATATATTCTTT (sugars k3 d4 k3 e1 d5, PS) | – | 96% and 95% | 95 | –
24 | CAGTTTTGTAAGTGCA (sugars kkdddddkekeddddd, PS) | 53% | 89% | 94 | target mRNA inhibition (APOL1; A431, 0.0156 µM): 25%; target mRNA inhibition (APOL1; A431, 0.25 µM): 84%
25 | CTTTAAACTCAGGTGA (sugars k2 d4 e4 k2 d4, PS) | – | – | 88 | –
26 | CATTCAGAATTTCCAC (sugars kkddddkekekddddd, PS) | – | – | 76 | –
27 | TTGTAAGTGCAACCAA (sugars kkddddkdkdkddddd, PS) | – | – | 74 | –
28 | ACGCAATGCTGACTTG (sugars kekddddeekkddddd, PS) | – | – | 91 | –
29 | AGTATTGTTTTTGTGG (sugars k3 d4 k3 e1 d5, PS) | – | – | 89 | –
30 | GGCAGTTTTGTAAGTG (sugars kkddddekekeddddd, PS) | – | – | 75 | –
31 | GTTTTGTAAGTGCAAC (sugars kdddddkekekddddd, PS) | – | – | 92 | –
32 | CAAGTCAGTACAGAGC (sugars k4 d9 k3, PS) | 57% | 94% | – | target mRNA inhibition (APOL1; A431, 0.25 µM): 82%
33 | GTTCAAAAGCAGCATT (sugars kkkddddkdkdkdddd, PS) | – | – | 23 | –
34 | TTATATTTGATCCTCA (sugars kdddddkekekddddd, PS) | – | – | 82 | –
35 | AATGAACGCAATGCTG (sugars k4 d9 k3, PS) | 35% | 75% | – | target mRNA inhibition (APOL1; A431, 0.25 µM): 50%
36 | ATCAGATGGGTACTTC (sugars kkkddddkekeddddd, PS) | – | – | 85 | –
37 | ATATCAGATGGGTACT (sugars k2 d4 e3 k2 d5, PS) | – | – | 52 | –
38 | GCAATTTTATGGAACC (sugars k4 d9 k3, PS) | – | 91% | – | target mRNA inhibition (APOL1; A431, 0.04 µM): 42%
39 | TACCGGGTAAGAGCGA (sugars k4 d9 k3, PS) | 32% | 78% | – | target mRNA inhibition (APOL1; A431, 0.25 µM): 64%
40 | TGTTATCCTCAAGCTC (sugars k4 d9 k3, PS) | 37% and 17% | – | – | –
41 | CACTTTATACCAGTGT (sugars k2 d4 e3 k2 d5, PS) | – | – | 0 | –
42 | CAGTTTTGTAAGTGCA (sugars kkkddddkekeddddd, PS) | – | – | 92 | –

Row | Sequence | target mRNA inhibition (APOL1; A431, 0.0625 µM) | target mRNA inhibition (APOL1; A431, 1 µM) | target mRNA inhibition (APOL1; A431, 2 µM) [%] | further results
43 | AAGATTGGCTCTGGCT (sugars kkdddddkekeddddd, PS) | – | – | 65 | –
44 | AATTCTATTAGAGGGC (sugars k3 d4 k3 e1 d5, PS) | – | – | 70 | –
45 | TTCTATTAGAGGGCTA (sugars kkkddddkdkdkdddd, PS) | – | – | 78 | –
46 | GAGTATTGTTTTTGTG (sugars kkdddddkekeddddd, PS) | 75% | 96% | 96 | target mRNA inhibition (APOL1; A431, 0.0156 µM): 33%; target mRNA inhibition (APOL1; A431, 0.25 µM): 91%
47 | AAGATTGGCTCTGGCT (sugars k3 d4 k3 e1 d5, PS) | – | – | 35 | –
48 | TTATGAAATTATTGGT (sugars kkddddkekekkdddd, PS) | – | – | 63 | –
49 | AGTATTGCCAGCTAAG (sugars kkddddekekeddddd, PS) | – | – | 78 | –
50 | TTCTCATGGTACAGGA (sugars kkddddkdkdkddddd, PS) | – | – | 89 | –
51 | CGTGTTATATTTGATC (sugars k2 d4 e3 k2 d5, PS) | – | – | 74 | –
52 | GGGTTATGAAATTATT (sugars kkddddkekekddddd, PS) | – | – | 84 | –
53 | AGTATTGCCAGCTAAG (sugars kkkddddkekekdddd, PS) | – | – | 66 | –
54 | TTATACCAGTGTCTTC (sugars kddddkekekeddddd, PS) | – | – | 82 | –
55 | AAGTGCAACCAATCAA (sugars k4 d9 k3, PS) | 36% | 83% | – | target mRNA inhibition (APOL1; A431, 0.25 µM): 63%
56 | CTATTAGAGGGCTAGT (sugars kdddddkekekddddd, PS) | – | – | 28 | –
57 | ATTCTCATGGTACAGG (sugars kkddddkekekkdddd, PS) | – | – | 34 | –
58 | TTCTATTAGAGGGCTA (sugars k2 d4 e3 k2 d5, PS) | – | – | 87 | –
59 | TGAAACATTCCTGGAC (sugars k4 d9 k3, PS) | 28% and 8% | 80% and 65% | – | target mRNA inhibition (APOL1; A431, 0.25 µM): 55% and 32%
60 | CGTCAATATATTCTTT (sugars kkkddddkekeddddd, PS) | 72% | 96% and 95% | 94 | target mRNA inhibition (APOL1; A431, 0.0156 µM): 35%; target mRNA inhibition (APOL1; A431, 0.04 µM): 53% and 50%; target mRNA inhibition (APOL1; A431, 0.25 µM): 90%
61 | GCTTTAAACTCAGGTG (sugars k3 d4 k3 e1 d5, PS) | – | – | 74 | –
62 | TTATTCTCATGGTACA (sugars kkkddddkekekdddd, PS) | – | – | 53 | –
63 | CTATTAGAGGGCTAGT (sugars k4 d9 k3, PS) | 32% and 19% | 71% and 51% | – | target mRNA inhibition (APOL1; A431, 0.25 µM): 52% and 39%

Row | Sequence | target mRNA inhibition (APOL1; A431, 0.0625 µM) | target mRNA inhibition (APOL1; A431, 1 µM) | target mRNA inhibition (APOL1; A431, 2 µM) [%] | further results
64 | GAACGCAATGCTGACT (sugars kkddddekekeddddd, PS) | 40% | 92% | 95 | target mRNA inhibition (APOL1; A431, 0.0156 µM): 19%; target mRNA inhibition (APOL1; A431, 0.25 µM): 74%
65 | TTCTATTAGAGGGCTA (sugars kekddddeekkddddd, PS) | – | – | 94 | –
66 | TTATGGAATTGCAGAT (sugars k4 d9 k3, PS) | 38% | 86% | – | target mRNA inhibition (APOL1; A431, 0.25 µM): 67%
67 | TATTTCTTGATGTGGT (sugars kkddddkekekkdddd, PS) | – | – | 71 | –
68 | TTCTTGATGTGGTGGG (sugars k4 d9 k3, PS) | 58% | 91% | – | target mRNA inhibition (APOL1; A431, 0.25 µM): 82%
69 | GCTTTAAACTCAGGTG (sugars kekddddeekkddddd, PS) | – | – | 93 | –
70 | ACGCAATGCTGACTTG (sugars kkddddkekekddddd, PS) | – | – | 79 | –
71 | TATTGGTTCAAAAGCA (sugars k4 d9 k3, PS) | 29% | 86% | – | target mRNA inhibition (APOL1; A431, 0.25 µM): 67%
72 | GTATTGCCAGCTAAGG (sugars kddddkekekeddddd, PS) | – | – | 70 | –
73 | GTATTTCTTGATGTGG (sugars kdddddkekekddddd, PS) | – | – | 92 | –
74 | AGCTTTAAACTCAGGT (sugars kkkddddkekekdddd, PS) | – | – | 64 | –
75 | GCTTTAAACTCAGGTG (sugars kkkddddkekekdddd, PS) | – | – | 68 | –
76 | TGGATGGAAGGAACCT (sugars k4 d9 k3, PS) | 3% | 36% | – | target mRNA inhibition (APOL1; A431, 0.25 µM): 44%
77 | AGTATTGTTTTTGTGG (sugars k2 d4 e4 k2 d4, PS) | – | – | 85 | –
78 | TGTTCTAACTCTTGGG (sugars k2 d4 e3 k2 d5, PS) | 61% | 93% | 97 | target mRNA inhibition (APOL1; A431, 0.0156 µM): 24%; target mRNA inhibition (APOL1; A431, 0.25 µM): 84%
79 | AGTATTGCCAGCTAAG (sugars k4 d9 k3, PS) | 63% | 97% | – | target mRNA inhibition (APOL1; A431, 0.25 µM): 89%
80 | GCATTCAGAATTTCCA (sugars kkkddddkekeddddd, PS) | – | – | 84 | –
81 | GTTTTGTAAGTGCAAC (sugars kddddkekekeddddd, PS) | – | – | 73 | –
82 | CAGTACAGAGCAGGAT (sugars k4 d9 k3, PS) | 59% | 94% | – | target mRNA inhibition (APOL1; A431, 0.25 µM): 82%
